In the CheMixHub ionic liquid set:

Assay: xn = mol fraction of the nth substance listed

F[B-](F)(F)F.[Li+] + CC[n+]1ccn(C)c1.O=S(=O)([N-]S(=O)(=O)C(F)(F)F)C(F)(F)F
electrical conductivity [S/m], 101 kPa
Details	x2 = 0.7088	x2 = 0.7396	x2 = 0.8073	x2 = 0.8856	x2 = 0.9623
288.15 K	–	0.238	0.31	0.431	0.542
298.15 K	0.295	0.384	0.489	0.651	0.807
333.15 K	1.01	1.18	1.4	1.72	2.03

O=C1OCCO1 + CC[n+]1ccn(C)c1.O=S(=O)([N-]S(=O)(=O)C(F)(F)F)C(F)(F)F
100 kPa
Details	electrical conductivity [S/m]	viscosity [mPa·s]
293.15 K, x1 = 0.8163	–	5
293.15 K, x1 = 0.98	0.62	–
303.15 K, x1 = 0.5263	–	11.5
303.15 K, x1 = 0.7476	–	6.1
313.15 K, x1 = 0.95	1.42	–
333.15 K, x1 = 0.8163	–	2.4
333.15 K, x1 = 0.95	1.84	–
343.15 K, x1 = 0.5263	–	4.6
343.15 K, x1 = 1	–	1.16
353.15 K, x1 = 0.66	4.47	–
353.15 K, x1 = 0.82	4.06	–
353.15 K, x1 = 0.9467	–	1.33
353.15 K, x1 = 0.98	1.37	–
363.15 K, x1 = 0.8163	–	1.56
373.15 K, x1 = 0.5263	–	3
373.15 K, x1 = 1	–	0.85
383.15 K, x1 = 0.7476	–	1.63
393.15 K, x1 = 0.7476	–	1.49
393.15 K, x1 = 0.9467	–	0.91

F[B-](F)(F)F.[Li+] + CC[n+]1ccn(C)c1.O=S(=O)([O-])C(F)(F)F
electrical conductivity [S/m], 101 kPa
Details	x1 = 0.007746	x1 = 0.01537	x2 = 0.9648	x2 = 0.9746
288.15 K	0.628	0.59	–	0.537
298.15 K	0.908	0.855	0.796	0.797
333.15 K	2.25	2.19	2.06	2.07

O=[N+]([O-])[O-].[Li+] + CC[n+]1ccn(C)c1.O=S(=O)([O-])C(F)(F)F
electrical conductivity [S/m], 101 kPa
Details	x2 = 0.8748	x2 = 0.9165	x2 = 0.9576	x2 = 0.9746
288.15 K	0.38	0.454	0.563	0.562
298.15 K	0.587	0.68	0.818	0.816
333.15 K	1.69	1.85	2.07	2.1

CC(C)[C@H](N)C(=O)O + CC[n+]1ccn(C)c1.O=S(=O)([O-])O + O
viscosity [mPa·s], 100 kPa
Details	x1 = 0.0003621, x2 = 0	x1 = 0.0007257, x2 = 0	x1 = 0.001091, x2 = 0	x1 = 0.001447, x2 = 0	x1 = 0.001793, x2 = 0	x1 = 0.002246, x2 = 0	x1 = 0.002701, x2 = 0
293.15 K	1.023	1.043	1.064	1.084	1.103	1.128	1.154
298.15 K	0.899	0.907	0.916	0.924	0.931	0.941	0.952
303.15 K	0.805	0.812	0.82	0.827	0.835	0.844	0.854
308.15 K	0.727	0.734	0.742	0.749	0.756	0.765	0.774
313.15 K	0.66	0.666	0.673	0.679	0.686	0.694	0.703

O=C(O)C(F)(F)C(F)(F)C(F)(F)C(F)(F)F + CC[n+]1ccn(C)c1.[Cl-]
102 kPa
Details	viscosity [mPa·s]
293.15 K, x2 = 0.6636	295
303.15 K, x2 = 0.3346	24.2
313.15 K, x2 = 0.3346	17.41
318.15 K, x2 = 0.5026	31.7
323.15 K, x2 = 0.5026	26.6
333.15 K, x2 = 0.5026	19.35
333.15 K, x2 = 0.6636	39.1
338.15 K, x2 = 0.3346	8.91
338.15 K, x2 = 0.5026	16.68
348.15 K, x2 = 0.5026	12.76
353.15 K, x2 = 0.3346	6.42

CC(C)=O + CC[n+]1ccn(C)c1C.F[B-](F)(F)F
101.3 kPa, x2 = 0
Details	viscosity [mPa·s]
293.15 K	0.325
298.15 K	0.303
303.15 K	0.297
308.15 K	0.283
313.15 K	0.269
318.15 K	0.251
323.15 K	0.244

CCC(=O)[O-].C[NH+](C)Cc1ccccc1 + CN(C)C=O
viscosity [mPa·s], 101 kPa
Details	293.15 K	298.15 K	303.15 K	308.15 K	313.15 K	318.15 K	323.15 K	328.15 K
x1 = 0.006283	0.957	0.915	0.878	0.846	0.817	0.79	0.767	0.745
x1 = 0.009868	0.965	0.923	0.885	0.852	0.822	0.795	0.771	0.749
x1 = 0.01556	0.974	0.93	0.893	0.858	0.828	0.8	0.776	0.753
x1 = 0.01941	0.985	0.94	0.901	0.866	0.834	0.807	0.781	0.758
x2 = 0.9599	1.036	0.986	0.94	0.9	0.865	0.834	0.806	0.781
x2 = 0.9647	1.025	0.975	0.932	0.893	0.858	0.828	0.801	0.776
x2 = 0.9703	1.012	0.964	0.922	0.884	0.851	0.821	0.794	0.77
x2 = 0.9751	0.997	0.95	0.91	0.873	0.841	0.813	0.787	0.764

CCCCCC[n+]1ccn(C)c1.F[B-](F)(F)F + CN(CCO)CCO
101 kPa
Details	viscosity [mPa·s]
303.15 K, x2 = 0.3916	72.6
303.15 K, x2 = 0.4949	69.8
303.15 K, x2 = 0.7928	62.2
313.15 K, x2 = 0.5936	41.8
313.15 K, x2 = 0.8824	36.8
318.15 K, x2 = 0.4949	34.3

COP(=O)([O-])OC.Cn1cc[n+](C)c1 + CN(CCO)CCO + O
Details	viscosity [mPa·s]
343.15 K, x2 = 0.4346, x3 = 0.3656	10.65

COP(=O)([O-])OC.Cn1cc[n+](C)c1 + CO
Details	viscosity [mPa·s]
293.15 K, 101 kPa, x2 = 0.6018	20.02
293.15 K, 101 kPa, x2 = 0.8998	1.927
298.15 K, 101 kPa, x2 = 0	291
298.15 K, 101 kPa, x2 = 0.2977	86.2
298.15 K, 101 kPa, x2 = 0.3984	54.2
303.15 K, 101 kPa, x2 = 0.2009	95.3
303.15 K, 101 kPa, x2 = 0.5028	24.98
308.15 K, 101 kPa, x2 = 0.5028	21.1
308.15 K, 101.33 kPa, x2 = 0	139.5
318.15 K, 101 kPa, x2 = 0.1054	71.5
318.15 K, 101 kPa, x2 = 0.7027	5.83
323.15 K, 101 kPa, x2 = 0.2977	31.01
323.15 K, 101 kPa, x2 = 0.5028	13.63

CCCCCCCC[P+](CC)(CC)CC.O=[N+]([O-])c1cn[n-]c1 + COCCOCCOCCOCCOC
100 kPa
Details	viscosity [mPa·s]
278.15 K, x2 = 0.503	78
283.15 K, x2 = 0	868
283.15 K, x2 = 0.404	97
288.15 K, x2 = 0	578
288.15 K, x2 = 0.102	327
303.15 K, x2 = 0.051	170
308.15 K, x2 = 0.199	69
313.15 K, x2 = 0.199	55
318.15 K, x2 = 0	94

COP(=O)([O-])OC.Cn1cc[n+](C)c1 + CS(C)=O
viscosity [mPa·s], 101 kPa
Details	298.15 K	313.15 K	333.15 K
x1 = 0.1773	7.7	4.8	3.1
x1 = 0.4972	42.7	22.6	11.9
x1 = 0.7978	134.7	59.6	26.7
